Source: PubChem BioAssay AID330 (DTP/NCI, 2004)
Several values for one entry are separate records, joined by “and”; a condition that tells them apart may be missing. Identical values can stand only once. Inconclusive results and toxic doses are left out.

Test system: P388 leukemia ip, CD2F1 mice, survival T/C
Test: NCI In Vivo Anticancer Drug Screen. Data for tumor model P388 Leukemia (intraperitoneal) in CD2F1 (CDF1) mice
Details: endpoint: median survival time, higher = longer survival
In short: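 Mice carrying the transplanted tumor received test compound or vehicle. Survival was recorded in each group, and the value is the treated-group measurement divided by that of the vehicle-treated control group.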

[1] = dose: 60.0 mg/kg/injection, schedule: Q01DX005 (ip), vehicle: saline with Tween-80
[2] = dose: 120.0 mg/kg/injection, schedule: Q01DX005 (ip), vehicle: saline with Tween-80
[3] = dose: 240.0 mg/kg/injection, schedule: Q01DX005 (ip), vehicle: saline with Tween-80
[4] = dose: 50.0 mg/kg/injection, schedule: Q01DX009 (ip), vehicle: saline with Tween-80
[5] = dose: 100.0 mg/kg/injection, schedule: Q01DX009 (ip), vehicle: saline with Tween-80
[6] = dose: 50.0 mg/kg/injection, schedule: Q04DX003 (ip), vehicle: saline with Tween-80
[7] = dose: 50.0 mg/kg/injection, schedule: Q01DX005 (ip), vehicle: Klucel (hydroxypropylcellulose) (HPC)
[8] = dose: 100.0 mg/kg/injection, schedule: Q01DX005 (ip), vehicle: Klucel (hydroxypropylcellulose) (HPC)
[9] = dose: 200.0 mg/kg/injection, schedule: Q01DX005 (ip), vehicle: Klucel (hydroxypropylcellulose) (HPC)

**Q.** CCOP(=O)(O)SP(=O)(O)OCC.CCOP(=O)(O)SP(=O)(O)OCC.[Co] was tested. Which T/C (dose: 50.0 mg/kg/injection, schedule: Q01DX001 (ip), vehicle: saline) did it give?
**A.** 105 % of control

**Q.** And the T/C (dose: 100.0 mg/kg/injection, schedule: Q01DX001 (ip), vehicle: saline)?
**A.** 104 % of control and 111 % of control

**Q.** O=c1c2cncnc2sc2nccn12 was tested. Which T/C [1] did it give?
**A.** 99 % of control

**Q.** And the T/C [2]?
**A.** 98 % of control

**Q.** And the T/C [3]?
**A.** 95 % of control

**Q.** For CC(=O)C(=O)c1ccc(O)c(C)c1O, which T/C [4] is on record?
**A.** 107 % of control

**Q.** What about the T/C [5] of the same compound?
**A.** 104 % of control

**Q.** And the T/C (dose: 200.0 mg/kg/injection, schedule: Q01DX009 (ip), vehicle: saline with Tween-80)?
**A.** 105 % of control

**Q.** COc1nsc2ccc(C(C)C(N)=O)cc12 (stereo not drawn) was tested. Which T/C [1] did it give?
**A.** 100 % of control

**Q.** What about the T/C [2] of the same compound?
**A.** 97 % of control

**Q.** What about the T/C [3] of the same compound?
**A.** 89 % of control

**Q.** For Cc1cccc2c(Nc3ccc(NS(C)(=O)=O)cc3)c3ccccc3nc12, which T/C (dose: 0.53 mg/kg/injection, schedule: Q01DX009 (ip), vehicle: saline) is on record?
**A.** 111 % of control

**Q.** And the T/C (dose: 0.8 mg/kg/injection, schedule: Q01DX009 (ip), vehicle: saline)?
**A.** 124 % of control

**Q.** What about the T/C (dose: 7.5 mg/kg/injection, schedule: Q01DX009 (ip), vehicle: saline with Tween-80) of the same compound?
**A.** 166 % of control

**Q.** And the T/C (dose: 33.0 mg/kg/injection, schedule: Q04DX003 (ip), vehicle: saline with Tween-80)?
**A.** 168 % of control

**Q.** And the T/C [6]?
**A.** 163 % of control

**Q.** What about the T/C (dose: 75.0 mg/kg/injection, schedule: Q04DX003 (ip), vehicle: saline with Tween-80) of the same compound?
**A.** 163 % of control and 181 % of control

**Q.** And the T/C (dose: 150.0 mg/kg/injection, schedule: Q04DX003 (ip), vehicle: saline with Tween-80)?
**A.** 181 % of control

**Q.** And the T/C (dose: 300.0 mg/kg/injection, schedule: Q04DX003 (ip), vehicle: saline with Tween-80)?
**A.** 122 % of control

**Q.** Which results are given for CC1(C)OC2C(COC(=O)Oc3ccccc3)OC(n3cnc4c(=S)nc[nH]c43)C2O1 (stereo not drawn)?
**A.** T/C (dose: 25.0 mg/kg/injection, schedule: Q01DX009 (ip), vehicle: saline with Tween-80): 95 % of control; T/C (dose: 25.0 mg/kg/injection, schedule: Q04DX003 (ip), vehicle: saline with Tween-80): 105 % of control; T/C [4]: 95 % of control; T/C [6]: 110 % of control; T/C [5]: 95 % of control; T/C (dose: 100.0 mg/kg/injection, schedule: Q04DX003 (ip), vehicle: saline with Tween-80): 100 % of control

**Q.** How did the T/C (dose: 18.75 mg/kg/injection, schedule: Q01DX009 (ip), vehicle: saline sonified) turn out when CCCCCCC(C(=O)OCC)P(=O)(OCC)OCC (stereo not drawn) was run?
**A.** 90 % of control

**Q.** What about the T/C (dose: 37.5 mg/kg/injection, schedule: Q01DX009 (ip), vehicle: saline sonified) of the same compound?
**A.** 95 % of control

**Q.** And the T/C (dose: 75.0 mg/kg/injection, schedule: Q01DX009 (ip), vehicle: saline sonified)?
**A.** 100 % of control

**Q.** CC(C)=CCC/C(C)=C/CC/C(C)=C/CC/C(C)=C/CC/C(C)=C/CC/C(C)=C/CC/C(C)=C/CC/C(C)=C/CC/C(C)=C/CO was tested. Which T/C (dose: 6.25 mg/kg/injection, schedule: Q01DX009 (ip), vehicle: saline + alcohol) did it give?
**A.** 98 % of control

**Q.** What about the T/C (dose: 12.5 mg/kg/injection, schedule: Q01DX009 (ip), vehicle: saline + alcohol) of the same compound?
**A.** 96 % of control

**Q.** What about the T/C (dose: 25.0 mg/kg/injection, schedule: Q01DX009 (ip), vehicle: saline + alcohol) of the same compound?
**A.** 99 % of control

**Q.** And the T/C (dose: 50.0 mg/kg/injection, schedule: Q01DX009 (ip), vehicle: saline + alcohol)?
**A.** 107 % of control

**Q.** And the T/C (dose: 100.0 mg/kg/injection, schedule: Q01DX009 (ip), vehicle: saline + alcohol)?
**A.** 96 % of control

**Q.** And the T/C (dose: 200.0 mg/kg/injection, schedule: Q01DX009 (ip), vehicle: saline + alcohol)?
**A.** 109 % of control

**Q.** Which T/C [1] does the source give for O=S(=O)(c1ccc(F)cc1)N(CCCCCN(S(=O)(=O)c1ccc(F)cc1)S(=O)(=O)c1ccc(F)cc1)S(=O)(=O)c1ccc(F)cc1 here?
**A.** 97 % of control

**Q.** What about the T/C [2] of the same compound?
**A.** 91 % of control

**Q.** What about the T/C [3] of the same compound?
**A.** 90 % of control

**Q.** With CC(=Nc1ccc(N(C)C)cc1)c1ccccc1 as the compound, how does the T/C [1] read?
**A.** 98 % of control

**Q.** What about the T/C [2] of the same compound?
**A.** 98 % of control

**Q.** For CCCN(CCC)C(=O)C(c1ccccc1)C1(O)CCCC1 (stereo not drawn), which T/C [7] is on record?
**A.** 101 % of control

**Q.** What about the T/C [8] of the same compound?
**A.** 102 % of control

**Q.** What about the T/C [9] of the same compound?
**A.** 102 % of control

**Q.** With Cn1cnc([N+](=O)[O-])c1Sc1n[nH]c(N)n1 as the compound, how does the T/C [7] read?
**A.** 111 % of control

**Q.** And the T/C [8]?
**A.** 117 % of control

**Q.** What about the T/C [9] of the same compound?
**A.** 108 % of control

**Q.** Which results are given for O=S(c1ccccc1)c1c(Cl)c(Cl)nc(Cl)c1Cl (stereo not drawn)?
**A.** T/C (dose: 22.0 mg/kg/injection, schedule: Q01DX009 (ip), vehicle: saline with Tween-80): 100 % of control and 113 % of control; T/C (dose: 33.0 mg/kg/injection, schedule: Q01DX009 (ip), vehicle: saline with Tween-80): 109 % of control

**Q.** Which T/C [7] does the source give for COc1ccc(OC)c2c(Cl)cc(NCCCN3CCN(CCCNc4cc(Cl)c5c(OC)ccc(OC)c5n4)CC3)nc12 here?
**A.** 97 % of control

**Q.** And the T/C [8]?
**A.** 93 % of control

**Q.** And the T/C [9]?
**A.** 90 % of control

**Q.** Which results are given for CCOC(=O)C[N+](C)(C)C(C#N)C(C)c1ccccc1 (stereo not drawn)?
**A.** T/C (dose: 60.0 mg/kg/injection, schedule: Q01DX005 (ip), vehicle: saline): 95 % of control; T/C (dose: 120.0 mg/kg/injection, schedule: Q01DX005 (ip), vehicle: saline): 95 % of control

**Q.** How did the T/C [4] turn out when CC(C)(c1ccc(OCOC(=O)NN)cc1)c1ccc(OCOC(=O)NN)cc1 was run?
**A.** 95 % of control

**Q.** And the T/C [5]?
**A.** 102 % of control

**Q.** Which T/C (dose: 2.5 mg/kg/injection, schedule: Q01DX009 (ip), vehicle: Klucel (hydroxypropylcellulose) (HPC)) does the source give for COc1cc2c(c(OC)c1O)-c1ccc(OC)c(=O)cc1[C@@H](NC(=O)C(F)(F)F)CC2 here?
**A.** 157 % of control

**Q.** What about the T/C (dose: 5.0 mg/kg/injection, schedule: Q01DX005 (ip), vehicle: Klucel (hydroxypropylcellulose) (HPC)) of the same compound?
**A.** 155 % of control

**Q.** And the T/C (dose: 5.0 mg/kg/injection, schedule: Q01DX009 (ip), vehicle: Klucel (hydroxypropylcellulose) (HPC))?
**A.** 159 % of control and 163 % of control

**Q.** What about the T/C (dose: 10.0 mg/kg/injection, schedule: Q01DX005 (ip), vehicle: Klucel (hydroxypropylcellulose) (HPC)) of the same compound?
**A.** 155 % of control

**Q.** And the T/C (dose: 10.0 mg/kg/injection, schedule: Q01DX009 (ip), vehicle: Klucel (hydroxypropylcellulose) (HPC))?
**A.** 182 % of control

**Q.** For CC(C)OC(=O)C#N, which T/C (dose: 1.56 mg/kg/injection, schedule: Q01DX005 (ip), vehicle: saline with Tween-80) is on record?
**A.** 100 % of control

**Q.** What about the T/C (dose: 3.12 mg/kg/injection, schedule: Q01DX005 (ip), vehicle: saline with Tween-80) of the same compound?
**A.** 101 % of control

**Q.** And the T/C (dose: 6.25 mg/kg/injection, schedule: Q01DX005 (ip), vehicle: saline with Tween-80)?
**A.** 100 % of control

**Q.** What about the T/C (dose: 12.5 mg/kg/injection, schedule: Q01DX005 (ip), vehicle: saline with Tween-80) of the same compound?
**A.** 98 % of control

**Q.** Which T/C (dose: 100.0 mg/kg/injection, schedule: Q04DX002 (ip), vehicle: Klucel (hydroxypropylcellulose) (HPC)) does the source give for O=[N+]([O-])c1cccc(SNSc2cccc([N+](=O)[O-])c2)c1 here?
**A.** 90 % of control

**Q.** What about the T/C (dose: 200.0 mg/kg/injection, schedule: Q04DX002 (ip), vehicle: Klucel (hydroxypropylcellulose) (HPC)) of the same compound?
**A.** 88 % of control

**Q.** And the T/C (dose: 400.0 mg/kg/injection, schedule: Q04DX002 (ip), vehicle: Klucel (hydroxypropylcellulose) (HPC))?
**A.** 94 % of control

**Q.** Which T/C (dose: 25.0 micrograms/kg/injection, schedule: Q01DX009 (ip), vehicle: saline + alcohol) does the source give for CCC(=O)N(C)C(C)C(=O)OC1CC(=O)N(C)c2cc(cc(OC)c2Cl)CC2(C)OC2/C=C/C(OC)C2(O)CC(OC(=O)N2)C(C)C2OC12C (stereo not drawn) here?
**A.** 124 % of control

**Q.** What about the T/C (dose: 50.0 micrograms/kg/injection, schedule: Q01DX009 (ip), vehicle: saline + alcohol) of the same compound?
**A.** 120 % of control and 124 % of control

**Q.** And the T/C (dose: 100.0 micrograms/kg/injection, schedule: Q01DX009 (ip), vehicle: saline + alcohol)?
**A.** 124 % of control

**Q.** And the T/C (dose: 800.0 micrograms/kg/injection, schedule: Q01DX009 (ip), vehicle: saline + alcohol)?
**A.** 152 % of control

**Q.** Which T/C (dose: 0.25 mg/kg/injection, schedule: Q01DX009 (ip), vehicle: other) does the source give for COc1cc(C=Nc2cccc(F)c2)ccc1N(CCCl)CCCl here?
**A.** 109 % of control

**Q.** And the T/C (dose: 0.5 mg/kg/injection, schedule: Q01DX009 (ip), vehicle: other)?
**A.** 113 % of control

**Q.** And the T/C (dose: 1.0 mg/kg/injection, schedule: Q01DX009 (ip), vehicle: other)?
**A.** 122 % of control
